# Data taken from US9617273B2, “Fused tetra or penta-cyclic dihydrodiazepinocarbazolones as PARP inhibitors” (BEIGENE, LTD., priority 2011, dated 2017).
# System: PARP PARylation in HeLa cells
# Assay: PARylation assay in HeLa cells
# Format: cell-based
# Conditions: H2O2-provoked DNA damage
substance,measurement,value
"10-(2-hydroxyethyl)-2,2-dimethyl-2,3,5,10-tetrahydro-[1,2]diazepino[3,4,5,6-def]carbazol-6(1H)-one [Compound 67]",EC50,247 nM
